We go through 10 molecules from ChEMBL document CHEMBL1201862, “PubChem BioAssay data set” (2004).

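Exposure lasted 48 hours, with cells grown in 96-well plates and compounds tested at five concentrations. GI50 marks 50% less growth.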 Activity calls are given as the source filed them. No stated cut-off is given here; in the data, active = GI50 up to about 1.1 µM and inactive = higher. Some results are limits rather than exact numbers.

Some test systems named below: 786-0; A549; BT-549; DU-145; HL-60; Hs-578T; K562; MCF7; MDA-MB-231; Malme-3M; NCI-H226; NCI/ADR-RES; PC-3; RPMI-8226; RXF 393; SF-295; SNB-19; SR; UACC-62; UO-31.
Holding throughout (assay): NCI-60 cell line screen, 48 h

On to `O=c1c2cc(I)ccc2nc(Sc2ccc([N+](=O)[O-])cc2[N+](=O)[O-])n1Cc1ccccc1`, for which the GI50 in the test on 786-0 is 0.815 µM (active); with A549, 15.2 µM (inactive); with BT-549 it was 1.29 µM (inactive); in the test on DU-145 it was 2.96 µM (inactive); with HL-60 it was 1.83 µM (inactive); in the test with Hs-578T, 4.78 µM (inactive). Moreover, the GI50 was 1.78 µM (inactive) in the test on K562; 2.02 µM (inactive) in the test on MCF7; 5.22 µM (inactive) with MDA-MB-231; 5.51 µM (inactive) in the test on Malme-3M; 2.74 µM (inactive) in the test with NCI-H226; 1.83 µM (inactive) with NCI/ADR-RES. For the same molecule, the GI50 was 2.89 µM (inactive) with PC-3; 1.74 µM (inactive) with RPMI-8226; 2.38 µM (inactive) in the test on RXF 393; 5.92 µM (inactive) with SF-295; 6.65 µM (inactive) in the test with SNB-19; 0.394 µM (active) in the test with SR. For the same molecule, the GI50 with UACC-62 was 2.29 µM (inactive); in the test on UO-31 it was 2.26 µM (inactive).
On to `COc1cc2c(cc1OC)C(C1CC1)ON(C)CC2` (configuration not stated), for which the GI50 with 786-0, in the test on A549, in the test with BT-549, with DU-145, in the test on HL-60 and with Hs-578T was > 100 µM (inactive) in each case. Further, the GI50 in the test on K562, in the test on MCF7, in the test with MDA-MB-231, in the test on Malme-3M, with NCI-H226 and with NCI/ADR-RES was > 100 µM (inactive) each time. Besides, the GI50 in the test on PC-3, in the test on RPMI-8226, with RXF 393, in the test on SF-295, in the test on SNB-19 and with SR was > 100 µM (inactive) each time. Further, the GI50 in the test with UACC-62 and in the test with UO-31 was > 100 µM (inactive) in each case.
`C=C(C)[C@H]1C[C@@H]2O[C@@](O)(/C(C)=C\C(=O)/C=C(/C)C[C@H]3OC(=O)[C@@]24O[C@H]34)[C@@H]1O`: the GI50 with 786-0, with A549, in the test with BT-549, in the test with DU-145, in the test with HL-60 and with Hs-578T was > 100 µM (inactive) throughout. Further, the GI50 with K562, in the test with MCF7, with MDA-MB-231, in the test with Malme-3M, with NCI-H226 and in the test with NCI/ADR-RES was > 100 µM (inactive) throughout. The GI50 was > 100 µM (inactive) in the test on PC-3; > 100 µM (inactive) in the test with RPMI-8226; 25.7 µM (inactive) in the test on RXF 393; > 100 µM (inactive) with SF-295; > 100 µM (inactive) in the test with SNB-19; 47.4 µM (inactive) with SR. The GI50 in the test with UACC-62 is > 100 µM (inactive).
Turning to `CN(CCNC(=O)c1c[nH]c2c1ccc1ccccc12)CCNC(=O)c1c[nH]c2c1ccc1ccccc12`, the GI50 in the test on 786-0 was 1.82 µM (inactive); in the test on A549, 2.2 µM (inactive); in the test with BT-549, 9.35 µM (inactive); in the test on DU-145, 1.99 µM (inactive); in the test with HL-60, 1.95 µM (inactive); in the test with Hs-578T, 2.94 µM (inactive). Also, the GI50 with K562 was 2.18 µM (inactive); with MCF7, 1.43 µM (inactive); in the test with MDA-MB-231 it was 1.59 µM (inactive); in the test on Malme-3M, 8.55 µM (inactive); with NCI-H226, 18.1 µM (inactive); in the test on NCI/ADR-RES, 4.81 µM (inactive). Besides, the GI50 in the test on PC-3 is 2.26 µM (inactive); with RPMI-8226 it was 3.15 µM (inactive); in the test with RXF 393 it was 1.14 µM (inactive); in the test with SF-295 it was 2.22 µM (inactive); in the test on SNB-19, 2.23 µM (inactive); with SR, 2.08 µM (inactive). Moreover, the GI50 in the test with UACC-62 was 1.75 µM (inactive); in the test with UO-31, 1.38 µM (inactive).
In the case of `CCCCc1c(OC)cc(O)c2c1C(=O)c1[nH]c(C(=O)O)c(O)c(=O)c1C2=O`, the GI50 in the test with 786-0 is 1.62 µM (inactive); in the test with A549 it was 77.1 µM (inactive); in the test on BT-549, 4.47 µM (inactive); in the test on DU-145, 63.1 µM (inactive); in the test on HL-60, 1.56 µM (inactive); in the test with Hs-578T, 1.82 µM (inactive). The GI50 is > 100 µM (inactive) with K562; 21.1 µM (inactive) in the test with MCF7; 0.847 µM (active) in the test on MDA-MB-231; 5.57 µM (inactive) in the test with NCI-H226; 4.18 µM (inactive) in the test with NCI/ADR-RES; 6.12 µM (inactive) in the test on PC-3. In addition, the GI50 is > 100 µM (inactive) with RPMI-8226; 1.56 µM (inactive) with RXF 393; 22.8 µM (inactive) in the test with SF-295; 2.25 µM (inactive) with SNB-19; 6.93 µM (inactive) in the test with SR; 2.28 µM (inactive) with UACC-62. In addition, in the test on UO-31, the GI50 is 1.73 µM (inactive).
Consider `COc1cc(CNc2nc3ccccc3nc2-c2cccs2)cc(OC)c1OC`, for which the GI50 is 25.2 µM (inactive) in the test on 786-0; 18.7 µM (inactive) in the test on A549; 3.1 µM (inactive) in the test on BT-549; 44.4 µM (inactive) with DU-145; 14 µM (inactive) in the test with HL-60; 12.6 µM (inactive) in the test on Hs-578T. The GI50 is 17.6 µM (inactive) in the test with K562; 21.7 µM (inactive) in the test with MCF7; 17.6 µM (inactive) in the test on MDA-MB-231; 17.9 µM (inactive) with Malme-3M; 29.5 µM (inactive) in the test with NCI-H226; 8.24 µM (inactive) in the test on NCI/ADR-RES. For the same molecule, the GI50 in the test with PC-3 was 11.6 µM (inactive); in the test with RPMI-8226 it was 10.5 µM (inactive); with RXF 393, 14 µM (inactive); with SF-295 it was 33.5 µM (inactive); in the test on SR, 6.87 µM (inactive); in the test with UACC-62, 13.7 µM (inactive). Also, in the test with UO-31, the GI50 was 5.09 µM (inactive).
As to `NC(=S)N1N=C2c3ccccc3CCC[C@H]2[C@@H]1c1ccccc1`, the GI50 in the test on 786-0 is 1.01 µM (active); in the test with A549 it was 1.52 µM (inactive); in the test with BT-549 it was 0.406 µM (active); in the test on DU-145, 1.54 µM (inactive); in the test on HL-60 it was 0.589 µM (active); in the test on Hs-578T, 0.552 µM (active). Besides, the GI50 in the test on K562 was 0.284 µM (active); in the test on MCF7, 0.472 µM (active); in the test on MDA-MB-231, 0.513 µM (active); with Malme-3M it was 0.488 µM (active); in the test with NCI-H226, 2.6 µM (inactive); with NCI/ADR-RES, 0.348 µM (active). Also, the GI50 is 1.1 µM (active) with PC-3; 0.824 µM (active) with RPMI-8226; 1.7 µM (inactive) with RXF 393; 1.03 µM (active) with SF-295; 1.37 µM (inactive) in the test with SNB-19; 0.249 µM (active) with SR. In the test with UO-31, the GI50 was 1.9 µM (inactive).
As for `NC(=S)N/N=C(/C(=O)Nc1nc2ccc([N+](=O)[O-])cc2s1)C1C(=O)NC(=S)NC1=O`, the GI50 was > 100 µM (inactive) with 786-0; > 100 µM (inactive) with A549; 70.1 µM (inactive) with BT-549; > 100 µM (inactive) in the test on DU-145; > 100 µM (inactive) in the test on HL-60; 27.7 µM (inactive) with Hs-578T. The GI50 with K562 is > 100 µM (inactive); in the test with MCF7 it was > 100 µM (inactive); with MDA-MB-231, > 100 µM (inactive); in the test on NCI-H226, 33.2 µM (inactive); in the test on NCI/ADR-RES it was > 100 µM (inactive); with PC-3, 63.1 µM (inactive). In addition, the GI50 in the test on RPMI-8226 is > 100 µM (inactive); in the test with RXF 393 it was 48.6 µM (inactive); in the test with SF-295, 42.2 µM (inactive); in the test with SNB-19, 76.6 µM (inactive); in the test on SR, > 100 µM (inactive); in the test on UACC-62, > 100 µM (inactive). In addition, the GI50 in the test on UO-31 was 63.8 µM (inactive).
For the molecule `O=C(C=P(c1ccccc1)(c1ccccc1)c1ccccc1)c1ccc(-c2cccc([N+](=O)[O-])c2)s1`, the GI50 with 786-0 was > 100 µM (inactive); in the test with A549, 57.5 µM (inactive); in the test on BT-549 it was > 100 µM (inactive); with DU-145 it was > 100 µM (inactive); with HL-60, 26 µM (inactive); in the test with Hs-578T, 52.5 µM (inactive). For the same molecule, the GI50 in the test with K562 was 37 µM (inactive); in the test with MCF7 it was 29.4 µM (inactive); with MDA-MB-231, > 100 µM (inactive); with Malme-3M, 81.7 µM (inactive); with NCI/ADR-RES it was 25.8 µM (inactive); with PC-3 it was 24.9 µM (inactive). Moreover, the GI50 is 19.5 µM (inactive) in the test with RPMI-8226; 70.8 µM (inactive) in the test with RXF 393; 47.4 µM (inactive) in the test on SF-295; > 100 µM (inactive) in the test on SNB-19; 42.5 µM (inactive) in the test with SR; 59 µM (inactive) in the test on UACC-62. The GI50 in the test with UO-31 is 48.2 µM (inactive).
Regarding `C=CCc1cccc2cc(C(=O)NC3CCCCC3)c(=N)oc12`, the GI50 was 14.5 µM (inactive) in the test on 786-0; 32.2 µM (inactive) with A549; 33.7 µM (inactive) in the test on BT-549; 16.1 µM (inactive) in the test with DU-145; 41 µM (inactive) with HL-60; 11.3 µM (inactive) in the test with Hs-578T. In addition, the GI50 with K562 was > 100 µM (inactive); with MCF7, 26.2 µM (inactive); in the test with MDA-MB-231, 16 µM (inactive); in the test on Malme-3M, > 100 µM (inactive); in the test with NCI-H226, 20.1 µM (inactive); with NCI/ADR-RES it was 27.4 µM (inactive). The GI50 with PC-3 was 16.1 µM (inactive); in the test with RPMI-8226, 45.6 µM (inactive); in the test with RXF 393, 31.4 µM (inactive); in the test with SNB-19 it was 21.4 µM (inactive); with SR, 63.8 µM (inactive); with UACC-62, 16.3 µM (inactive).
